Measured values published in the NIST ThermoML archive (doi:10.1016/j.jct.2014.01.025).
± gives the expanded uncertainty stated by the source.

Details: Liquid; for Critical pressure: Direct measurement; for Critical temperature: Visual observation in an unstirred cell

SMILES	Critical pressure	Critical temperature
CCO [ethanol]	6135 ± 31 kPa	514.2 ± 2.4 K
CCCCCCC [heptane]	2761 ± 31 kPa	540 ± 2.4 K
CO [methanol]	8128 ± 31 kPa	512.3 ± 2.4 K
CCCO [propan-1-ol]	5172 ± 31 kPa	537 ± 2.4 K
